# Where “and” joins values, the source holds several entries; their conditions need not be identical. Equal values may be shown once.
# Assays:
# RS4:11 cells = assay: Cell viability assay (CellTiter-Glo), RS4:11; assay type: cell-based; conditions: for raw luminescence reading / inhibition rate: RS4:11, single wells
# Method in brief: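 Compounds added in serum-free medium for 4 h (RS4:11: 6 h), then FBS brought to 10% and incubation continued to 24 h or 48 h total at 37 °C, 5% CO2. Viability by CellTiter-Glo 2.0 luminescence; IC50 calculated.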
# [1] = biological target: BCL-2 (chimeric human BCL-2); assay: SPR binding assay, BCL-2; conditions: affinity fitting, mean ± SD of three independent experiments, 25 °C
# Text: The DNA fragments encoding human BCL-XL ([…], with […] removed), BCL-w (residues 6–152), MCL-1 (residues 152–308) and BFL-1 (residues 1–151) as previously reported[18] were cloned into a pET-22b vector (Invitrogen), respectively. A chimeric human BCL-2 (including residues 1–50 and 92–207) was constructed, by removing the internal long loop (residues 51–91) and replacing its residues 35–50 with residues 33–48 of BCL-XL to solubilize the protein[14], and then it was cloned into a pET28a-Sumo vector (Invitrogen). All BCL-2 mutants (G101V, F104L, Y103D, D111A) were generated by mutagenic PCR, according to the QuikChange (Stratagene) protocol.
# SPR assays were performed using a Biacore T200 instrument in running buffer consisting 10 mM PBS, 50 μM EDTA and 0.05% Tween-20 at 25 °C. Biotinylated proteins were immobilized on a CAP sensor chip (Cytiva, 28920234). […] The binding affinities were quantified by the Biacore evaluation software using 1:1 binding model. The reproducibility of the assays was confirmed by performing replicate determinations.
smiles,measurement,setting,value
O=C(c1cc(-c2cc3c(cc2C(=O)N2Cc4ccccc4C[C@H]2CN2CCOCC2)OCO3)n2c1CCCC2)N(c1ccccc1)c1ccc(O)cc1 [S55746],IC50,"RS4:11 cells; 48 h treatment, CellTiter-Glo, small-molecule inhibitors, cells marked (nM)",4.5 ± 0.1 nM
same,raw luminescence reading,RS4:11 cells; 2.44141 nM,232300 and 260200 and 275600 and 316000 and 308700 and 306800
same,raw luminescence reading,RS4:11 cells; 4.88281 nM,135300 and 123100 and 129200 and 110700 and 132100 and 115900
same,inhibition rate,"RS4:11 cells; 4.88281 nM, 0.00488281 µM",53% and 57% and 55% and 61% and 54% and 59%
same,raw luminescence reading,RS4:11 cells; 9.76562 nM,75370 and 71000 and 72070 and 63170 and 68200 and 61260
same,inhibition rate,"RS4:11 cells; 9.76562 nM, 0.00976562 µM",74% and 75% and 78% and 76% and 79%
same,raw luminescence reading,RS4:11 cells; 19.5312 nM,38320 and 36520 and 36660 and 31950 and 34870 and 31060
same,inhibition rate,"RS4:11 cells; 19.5312 nM, 0.0195312 µM",87% and 89% and 88%
same,raw luminescence reading,RS4:11 cells; 39.0625 nM,14610 and 13790 and 14580 and 12190 and 12650 and 12610
same,inhibition rate,"RS4:11 cells; 39.0625 nM, 0.0390625 µM",95% and 96%
same,raw luminescence reading,RS4:11 cells; 78.125 nM,4289 and 3678 and 4541 and 3543 and 3931 and 3419
same,inhibition rate,"RS4:11 cells; 78.125 nM, 0.078125 µM",98% and 99%
same,raw luminescence reading,RS4:11 cells; 156.25 nM,1268 and 1101 and 1335 and 1644 and 1000 and 916.1
same,inhibition rate,"RS4:11 cells; 156.25 nM, 0.15625 µM",100% and 99%
same,inhibition rate,RS4:11 cells; 312.5 nM,100%
same,raw luminescence reading,RS4:11 cells; 312.5 nM,809.8 and 810.5 and 948.9 and 960.0 and 1116 and 1097
same,inhibition rate,RS4:11 cells; 625 nM,99%
same,raw luminescence reading,RS4:11 cells; 625 nM,1448 and 1571 and 1720 and 1855 and 1831 and 2149
same,inhibition rate,RS4:11 cells; 1250 nM,100%
same,raw luminescence reading,RS4:11 cells; 1250 nM,256.4 and 322.1 and 360.1 and 295.0 and 378.2 and 348.9
same,inhibition rate,RS4:11 cells; 2500 nM,100%
same,raw luminescence reading,RS4:11 cells; 2500 nM,334.6 and 379.8 and 329.3 and 445.4 and 358.3 and 346.2
same,inhibition rate,RS4:11 cells; 5000 nM,100%
same,inhibition rate,RS4:11 cells; 10000 nM,100%
same,raw luminescence reading,RS4:11 cells; 10000 nM,297.6 and 210.5 and 312.1 and 264.1 and 325.8 and 327.8
same,Kd,[1],6 ± 2 nM
